In US8512733B2, “Stents with drug-containing amphiphilic polymer coating” (Abbott Laboratories, priority 2001, dated 2013):
Blank lines part the entries; values can stand above or below the molecule they belong to.

What was measured:
[1] = pyrene fluorescence I3/I1 ratio in different environments; format: physicochemical; conditions: peaks at 383 nm (I3) and 373 nm (I1), excitation 335 nm, label = environment of the pyrene
Procedure: Zwitterionic polymer coatings were investigated by allowing pyrene to diffuse into the polymer and studying the degree to which it is taken up, and the effects on the ratio of the fluorescence band intensities to see if there is any significant indication of the type of environment present.
The solution was used to coat polymethylmethacrylate (PMMA) fluorescence cuvettes by simply pouring into the cuvette, draining, following by an oven curing at 70° C. overnight.
The fluorescence spectrum was recorded using an excitation wavelength of 335 nm and scanned from 350-440 nm on a PE LS 50B Luminescence Spectrophotometer. Subtraction of the spectrum of each coating in water was necessary to remove the interference of a small band at 380 nm present in all methacrylate systems.
Environment information could be obtained by comparing the ratio of the intensity of the peaks at 373 nm (I1) and 383 nm (I3) (I3/I1). Where I3/I1 was similar for polymer systems, the comparative amount of pyrene present could be estimated by the maximum intensity of I1; alternatively, the entire peak area may offer an alternative measure of the comparative amount of pyrene present in different coatings. It was important to mark the side of the cuvette to ensure the same orientations were achieved each time it was replaced in the spectrophotometer.
Pyrene solution added to the coated cuvettes was allowed to stand for 16 h, the cuvette emptied and washed thoroughly with ultrapure water, refilled with ultrapure water and the fluorescence spectrum recorded. The comparative maximum height of I1 was used to estimate the relative amounts of pyrene in the coatings. This was repeated for three cuvettes of each polymer and the average taken.

[2] = pyrene fluorescence; cited from earlier work
[3] = Estradiol elution studies in flow-system at 37° C.; format: physicochemical; conditions: 100 ml/min, 500 ml PBS, 8 hour period
Procedure: The elution of estradiol was examined in a flow system at 37° C. and evaluated over an 8 hour period. PBS was maintained at 37° C. in six stirred reservoirs (500 ml each) within a water bath. A length of silicone tubing (3 mm internal diameter) was attached from each reservoir to one of six stent chambers (4 mm internal diameter 80 mm long) and back to the respective reservoir via a peristaltic pump. The system was pumped using a flow rate of 100 ml/min to reach equilibrium temperature of 37° C. The flow was stopped and two estradiol loaded 15 mm stents loaded as in Example 1 were placed in each of the six stent chambers, and flow recommenced. A stent was then removed at various time periods and wick dried. These were used to measure the amount of estradiol remaining on the stent. […]. Since the total volume of PBS passing over the stents in the flow model is […], it is likely that throughout the period the rate of desorption of drug from the stent was higher than the rate of absorption from the environment. This condition may not apply to the non-flow method.

[4] = Release of 17β-estradiol from stents, stirred 1000 ml PBS at 37° C.; format: physicochemical; conditions: five stents vigorously stirred in 1000 ml PBS at 37° C., 24 hour period
Procedure: The elution profile for 17β-estradiol, FIG. 6 from the stents produced in example 1.1, was assessed using an in-vitro test where five stents were vigorously stirred in a large volume (1000 ml) of PBS saline solution at 37° C. […] Aliquots of buffer were removed at various time points over a 24 hour period and analysed for 17β-estradiol content. When translated into in-vivo conditions, the release profile is predicted to be over a prolonged period of time.

[5] = test system: porcine arteries; assay: In vivo test on estradiol loaded stents; conditions: one month
[6] = Estradiol elution studies at 25° C., non-flow system; format: physicochemical; conditions: at 4 hours, 5 ml PBS on rollers, 15 mm DD stents from Example 1.1
Procedure: Elution studies were carried out at 25° C. for […] in gently agitated PBS. This was done by placing 15 mm DD stents loaded with estradiol, from Example 1.1 individually in vials containing 5 ml phosphate buffered saline (PBS) on rollers. At various time intervals up to 7 hours a 1 ml aliquot was removed and replaced with 1 ml fresh PBS. The stents and water aliquots were measured, to give the amount of drug eluted and the amount of drug remaining on the stents.

[7] = P is the octanol/water partition coefficient; cited from earlier work

elution compared with Example 2 [3]: eluted relatively more quickly | release from stent [4]: sustained release | Re-endothelialization scores [5]: does not inhibit the healing process | estradiol still remaining on the stent [6]: 62%
SMILES: C[C@]12CC[C@@H]3c4ccc(O)cc4CC[C@H]3[C@@H]1CC[C@@H]2O [estradiol, 17β-estradiol]

I3/I1 ratio [1]: 0.75
SMILES: C=CC(=O)OCc1ccccc1 [benzyl acrylate monomer, benzyl acrylate]

The remaining lines, values behind:

SMILES: O [water]
I3/I1 ratio [1]: 0.633 | I3/I1 ratio, literature value [2]: 0.63

SMILES: C[C@H]1C[C@@H]2[C@H]([C@@H](O)C[C@@]3(C)[C@H]2CC[C@]3(O)C(=O)CO)[C@@]2(C)C=CC(=O)C=C12 [MP, 6α-methylprednisolone]
log P [7]: 1.42

SMILES: C=C(C)C(=O)OCCCCCCCCCCCC [lauryl methacrylate]
I3/I1 ratio [1]: 1.029
